From article PMC10906241, “Molecular Insights into O-Linked Sialoglycans Recognition by the Siglec-Like SLBR-N (SLBRUB10712) of Streptococcus gordonii” (ACS Central Science, 2024) come the findings set out here.

The target of the test is SLBR-N (SLBRUB10712) (Streptococcus mitis, UniProt A0A6I8WFK9). The test is described as follows: ITC. The note with it: single-site binding model.
Sequence of SLBR-N (SLBRUB10712) (A0A6I8WFK9 entry or part of it): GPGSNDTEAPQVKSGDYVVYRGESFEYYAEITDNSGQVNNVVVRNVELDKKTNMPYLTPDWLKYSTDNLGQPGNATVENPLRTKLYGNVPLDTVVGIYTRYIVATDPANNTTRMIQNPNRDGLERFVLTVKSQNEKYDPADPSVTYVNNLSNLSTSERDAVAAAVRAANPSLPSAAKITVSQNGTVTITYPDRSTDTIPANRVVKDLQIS

Usually Kd stands for a measure of binding affinity in units of concentration. Read a high Kd as lower affinity. The compound `CC(=O)N[C@H]1[C@H](OC[C@H]2O[C@H](O[C@H](C)[C@H](N)C(=O)O)[C@H](NC(C)=O)[C@@H](O[C@@H]3O[C@H](CO)[C@H](O)[C@H](O[C@]4(C(=O)O)C[C@H](O)[C@@H](NC(C)=O)[C@H]([C@H](O)[C@H](O)CO)O4)[C@H]3O)[C@H]2O)O[C@H](CO)[C@@H](O[C@@H]2O[C@H](CO)[C@H](O)[C@H](O[C@]3(C(=O)O)C[C@H](O)[C@@H](NC(C)=O)[C@H]([C@H](O)[C@H](O)CO)O3)[C@H]2O)[C@@H]1O` [compound 5, ligand 5] displayed a dissociation constant (Kd) of 15.1 ± 1.13 µM.
